From patent US20240336627A1, “NOVEL COMPOUNDS FOR THE DIAGNOSIS OF TDP-43 PROTEINOPATHIES” (AC IMMUNE SA, priority 2021, published 2024)
“Also recorded” adds a separate entry of the source. Where two headings read alike, the source gives them in different places. Marks after values point to notes of the source that are not given here.

Legend:
[1] = target: T1, Human brain derived TDP-43 aggregates (Homo sapiens, UniProt Q13148); experiment: Micro-radiobinding competition assay on human FTD sarkosyl-insoluble brain extracts; assay type: binding; details: for Human brain derived TDP-43 aggregates Mean % competition at 250 nM: 250 nM test compound; for Human brain derived TDP-43 aggregates Mean % competition at 2 μM: 2 μM test compound; for Ki: 0.24 nM to 2 μM test compound
T1 construct: A sample of brain tissue (frontal or temporal cortex) was homogenized; from tissue; host or cells: sarkosyl-insoluble fraction of human FTD brain (frontal or temporal cortex)
T1 sequence (Q13148 whole entry): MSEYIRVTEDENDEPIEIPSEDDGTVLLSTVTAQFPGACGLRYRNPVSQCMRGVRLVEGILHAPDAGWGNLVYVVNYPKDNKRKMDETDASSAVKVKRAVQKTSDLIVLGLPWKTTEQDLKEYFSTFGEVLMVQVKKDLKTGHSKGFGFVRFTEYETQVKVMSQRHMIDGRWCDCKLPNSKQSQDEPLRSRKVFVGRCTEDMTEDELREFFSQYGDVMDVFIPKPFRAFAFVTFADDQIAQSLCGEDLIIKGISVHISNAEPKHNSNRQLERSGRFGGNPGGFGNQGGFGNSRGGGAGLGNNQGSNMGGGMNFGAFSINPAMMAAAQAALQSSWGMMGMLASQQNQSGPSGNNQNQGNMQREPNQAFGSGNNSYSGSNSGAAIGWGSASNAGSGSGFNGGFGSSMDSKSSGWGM
Experimental: Human brain extracts were prepared as described in Laferriere et al., 2019, Nature Neurosc. A sample of brain tissue (frontal or temporal cortex) was homogenized at 1:4 (w/v) ratio in the homogenization-solubilization (HS) buffer at 4° C. using tissue homogenizer (Precellys) with CKmix homogenization tubes. The following sequence was used for homogenization: 3 cycles of 30 seconds at 5000 rpm (with 15 seconds pause between each cycle). Homogenized samples were aliquoted and stored at −80° C. in 1.5 mL low protein binding tubes.
Brain homogenates were thawed on ice and resuspended in HS buffer to obtain a final concentration of 2% sarkosyl, 1 unit/μL Benzonase and 1 mM MgCl2. The samples were then incubated at 37° C. under constant shaking at 600 rpm on a thermomixer for 45 minutes (min). The supernatants were collected in a new tube (sarkosyl-soluble fraction, S1). The pellet was resuspended in 1000 μL of myelin floatation buffer and centrifuged at 20,000 g for 60 min at 4° C. The supernatant was carefully removed to remove all the floating lipids. This step was repeated if all the lipids could not be removed in a single step. The pellet was subsequently washed with Phosphate-Buffered Saline (PBS) and centrifuged for 30 min at 20,000 g at 4° C. The final pellet was resuspended in 200 μL PBS and stored at −80° C. (sarkosyl-insoluble fraction). The samples were analyzed by immunoblotting in denaturing conditions.
Human FTD sarkosyl-insoluble brain extracts were spotted onto microarray slides. The slides were incubated with [^3H]-Compound 52 or [^3H]-Compound 16 ligands at 75 nM or 40 nM, respectively, and the example compounds (non-radiolabelled) at 2 μM and 250 nM. In some cases, the non-radiolabelled example compounds were further assessed for a range of different concentrations, varying from 0.24 nM to 2 μM for determination of the inhibition constant (Ki). After incubation, slides were washed and scanned by a real-time autoradiography system (BeaQuant, ai4R). Quantification of the signal was performed by using the Beamage image analysis software (ai4R). Non-specific signal was determined with an excess of non-radiolabelled compound 52 or compound 16 (2 μM) and specific binding was calculated by subtracting the non-specific signal from the total signal. Competition was calculated as percent, where 0% was defined as the specific binding in the presence of vehicle and 100% as the values obtained in the presence of excess of the non-radiolabelled compound 52 or compound 16. Ki values were calculated in GraphPad Prism7 by applying a nonlinear regression curve fit using a one site, specific binding model. Measurements were performed with at least two technical replicates in the two-concentration competition experiment and with one technical replicate in the experiments including a range of concentrations. For compounds tested in more than one experiment, the mean of the replicates or Ki values in independent experiments is reported.

[2] = target: T2, pTDP-43 aggregates in FTLD-TDP brain sections (Homo sapiens, UniProt Q13148); experiment: Micro-autoradiography staining in brain sections from patients with FTD; assay type: binding; details: 60 nM radioligand, frontal cortex brain sections from FTLD-TDP donors
T2 construct: from tissue; host or cells: frozen post-mortem human brain sections from FTLD-TDP donors
T2 sequence (Q13148 whole entry): as above
Experimental: All tissues were collected from donors for or from whom a written informed consent for a brain autopsy and the use of the material and clinical information for research purposes had been obtained by the respective brain banks. All samples were anonymized and coded. Frozen brain tissue blocks with confirmed TDP-43 pathology upon autopsy were processed using a cryotome to generate sections of 10 μm in thickness and mounted on glass slides. Sections were kept at −80° C. until use.
Brain sections were immunostained using a commercially available antibody, specific for phosphorylated serine at amino acid 409/410 (anti-pTDP-43 pS409/410, Cosmobio, TIP-PTD-P02). Sections were fixed for 15 minutes at 4° C. with 4% formaldehyde (Sigma, 252549) and washed three times for five minutes with 1×PBS (Dulbecco's phosphate buffered saline, Sigma D1408) at room temperature. Next, sections were saturated and permeabilized in blocking buffer (PBS, 10% normal goat serum (NGS), 0.25% Triton X-100) for one hour at room temperature and incubated overnight at 4° C. with primary antibody against pTDP-43 (diluted at 1/250 in PBS, 5% NGS, 0.25% Triton X-100). The following day, sections were washed three times for five minutes with 1×PBS before incubation with a secondary, AlexaFluor647-labeled goat-anti-rabbit antibody (Abcam, ab150079, diluted at 1/500 in PBS) for 45 minutes at room temperature. […]

[3] = target: T3, recombinant flag-tagged TDP-43 aggregates (Homo sapiens, UniProt Q13148); experiment: Kd determination on recombinant TDP-43 aggregates with filter-binding assay
T3 construct: FLAG
T3 sequence (Q13148 whole entry): as above
Experimental: The TDP-43 aggregation protocol (Shimonaka et al., 2016) was implemented to generate TDP-43 aggregates. The protein preparation of high purity without any degradation was used for the aggregation procedure.
2.1 Kd Determination on Recombinant TDP-43 Aggregates with Filter-Binding Assay of [^3H]-Compound 1
Recombinant flag-tagged TDP-43 aggregates (1.3 μM) were incubated in the presence of [^3H]-Compound 1 with increasing concentrations of radioligand from 0 to 150 nM in a total reaction volume of 100 μL, for two hours at room temperature. 45 μL of sample (corresponding to each concentration) in duplicate was filtered under vacuum on a UniFilter-96 GF/C plate. The filters were washed 5 times with ice-cold buffer (50 mM Tris pH 7.4) and then dried overnight. 30 μL scintillation liquid was added in each well for 30 minutes before quantifying the signal on a Microbeta Trilux device (Perkin Elmer). The non-specific signal was determined with an excess of unlabeled Compound 1 (10 μM) and the specific binding was calculated by subtracting the non-specific signal from the total signal.

[4] = radioligand [3H]-Compound 52 (75 nM)
[5] = radioligand [3H]-Compound 16 (40 nM)

SMILES | Human brain derived TDP-43 aggregates Mean % competition at 250 nM [1, 4] | Human brain derived TDP-43 aggregates Mean % competition at 2 μM [1, 4] | Ki [1, 4] [nM] | further results
N#Cc1cc(N2CCc3nc(-c4ccc(N5CCCC5)nc4)sc3C2=O)ccc1N [Example 18] | 76.2ª % | 102.0ª % | 68.6 | –
Cn1cc(N2CCc3nc(-c4ccc(N5CC[C@H](F)C5)cc4)sc3C2=O)cn1 [Example 28] | 56.5ª % | 79.7ª % | 111 | –
N#Cc1cc(N2CCc3nc(-c4ccc(N5CC[C@H](F)C5)nc4)sc3C2=O)ccc1N [Example 23] | 35.5ª % | 76.1ª % | 100 | –
Nc1cc(N2CCc3nc(-c4cnc(N5CCCC5)nc4)sc3C2=O)ccc1F [Example 42] | 43.8ª % | 79.6ª % | – | –
Nc1cc(N2CCc3nc(-c4cnc(N5CCC(F)CC5)nc4)sc3C2=O)ccc1F [Example 49] | – | – | – | Human brain derived TDP-43 aggregates Mean % competition at 250 nM [1, 5]: 63.1^c %; Human brain derived TDP-43 aggregates Mean % competition at 2 μM [1, 5]: 65.5^c %; Ki [1, 5]: 117 nM
N#Cc1c(N)cccc1N1CCc2nc(-c3cnc(N4CC[C@@H](F)C4)cn3)sc2C1=O [Example 40] | – | – | – | Human brain derived TDP-43 aggregates Mean % competition at 250 nM [1, 5]: 54.6^c %; Human brain derived TDP-43 aggregates Mean % competition at 2 μM [1, 5]: 77.9^c %; Ki [1, 5]: 104 nM
Nc1cc(N2CCc3nc(-c4ccc(N5CC[C@H](F)C5)nc4)sc3C2=O)ccc1F [Example 26, (S)-5-(3-amino-4-fluorophenyl)-2-(6-(3-fluoropyrrolidin-1-yl)pyridin-3-yl)-6,7-dihydrothiazolo[5,4-c]pyridin-4(5H)-one] | 40.8ª % | 70.8ª % | 9.9 | –
Cn1cc(N2CCc3nc(-c4cnc(N5CCC[C@H](F)C5)nc4)sc3C2=O)cn1 [Example 45] | 47.0ª % | 64.3ª % | – | –
N#Cc1ccc(N2CCc3nc(-c4ccc(N5CCC[C@@H](F)C5)nc4)sc3C2=O)cc1N [Example 30] | 55.9ª % | 75.7ª % | 86.6 | –
Cn1cc(N2CCc3nc(-c4ccc(N5CC[C@@H](F)C5)nc4)sc3C2=O)cn1 [[^3H]-Compound 1, (R)-2-(6-(3-fluoropyrrolidin-1-yl)pyridin-3-yl)-5-(1-methyl-1H-pyrazol-4-yl)-6,7-dihydrothiazolo[5,4-c]pyridin-4(5H)-one] | – | – | – | micro-autoradiography signal (silver grains) co-localization with pTDP-43 antibody staining [2]: Accumulation of silver grains on pTDP-43 aggregates; also recorded: showed co-localization with pTDP-43 aggregates; Kd ([3]; data from three independent experiments, read-out: average Kd): 18.4 ± 4 nM; Kd ([3]; filter-binding assay, tritiated radioligand 0 to 150 nM, one-site specific binding model (FIG. 1), read-out: Kd value on recombinant flag-tagged TDP-43 aggregates): 15 nM; specific binding to recombinant TDP-43 aggregates ([3]; filter-binding assay, non-specific signal subtracted): high specific binding
Nc1cc(N2CCc3nc(-c4ccc(N5CCC[C@H](F)C5)nc4)sc3C2=O)ccc1F [Example 33] | 52.1ª % | 81.0ª % | 144 | –
Nc1cc(N2CCc3nc(-c4ccc(N5CC[C@@H](F)C5)nc4)sc3C2=O)ccc1F [Example 25] | 66.6ª % | 83.0ª % | – | –
N#Cc1c(N)cccc1N1CCc2nc(-c3cnc(N4CC[C@H](F)C4)cn3)sc2C1=O [Example 41] | – | – | – | Human brain derived TDP-43 aggregates Mean % competition at 250 nM [1, 5]: 47.2^c %; Human brain derived TDP-43 aggregates Mean % competition at 2 μM [1, 5]: 67.7^c %
